The values that follow come from patent US9765300B2, “Hepatic cell lines and stem-like cells, methods of making and using the same” (priority 2014, dated 2017).

One data set has as its system Hepa-SC cells. The note with it: 10 μM; cited from earlier work.
The test system of the next data set is HEPARG® cells. Kind of data set: Comparative study of epigenetic modulators for HEPARG reprogramming to Hepa-SC (toxicity in culture). The class given is cell-based, human. Conditions: even at low concentration, in our culture conditions. An excerpt: • Step 1: Culturing the parental cells in a culture medium that has been modified in order to eliminate all factors supporting differentiation processes during a 2-passage culture period; • Step 2: Inducing mechanical stress such as shape constraint, onto the cells in order to generate a reprogramming signal toward stemness that should be associated with occurrence of a mechano-transduction signaling in all the cells in a synchronized manner, resulting in expression of a “stem cell signature” at the genome level; • Step 3: Inducing the stability of this stem cell fate by epigenetic mechanism, for instance by exposing the cells to methylation/acetylation modulators such as HDAC molecules. Epigenetic modifications refer to mitotically heritable changes in gene expression that are not coded in the DNA sequence itself (Levenson J M, Sweatt J D., 2005). The chosen epigenetic molecule should neither alter cell proliferation activity nor provoke toxicity effects and/or apoptotic induction. 5-azacytidine inhibits DNA methylation. It has been preferentially chosen for HEPARG® reprogramming to Hepa-SC stem-like cells after comparative study with Bix 01294, a small molecule known to inhibit the histone H3 methylation. […]

The next data set concerns Hepa-RP. Kind of data set: Cholestatic drug screening: alterations of bile saccular canaliculi in Hepa-RP. The class given is cell-based, human. Conditions: Hepa-RP at passage 29 (10 passages with a corticoid-free medium).

`Nc1ncn([C@H]2C[C@H](O)[C@@H](CO)O2)c(=O)n1` [5-aza-2′-deoxycytidine]: in the data set with Hepa-SC cells, the “inhibition of cell proliferation” value is “does not inhibit cell proliferation” and the visible cell toxicity result is given as “does not induce visible cell toxicity”. Regarding `COc1cc2nc(N3CCCN(C)CC3)nc(NC3CCN(Cc4ccccc4)CC3)c2cc1OC` [Bix 01294], the “toxicity compared with 5-azacytidine” value with HEPARG® cells is listed as “much more toxic”. As to `CN(C)CCCN1c2ccccc2Sc2ccc(Cl)cc21` [Chlorpromazine], in the data set on Hepa-RP, the “cholestatic effect on the bile saccular canaliculi (alteration)” value is “constriction”. `C[S+](C)[O-]` [DMSO]: the “induction of three distinct CYP450 enzymes activity” value with CYP450 enzymes is listed as “induced”. On to `O=S(=O)(c1cccc2cnccc12)N1CCCNCC1` [Fasudil], for which the “cholestatic effect on the bile saccular canaliculi (alteration)” value with Hepa-RP was “dilatation”.
